The source of these data is US20080031884A1, “COMPOSITIONS AND METHODS FOR TREATING, REDUCING, AMELIORATING, OR ALLEVIATING POSTERIOR-SEGMENT OPHTHALMIC DISEASES” (priority 2006, published 2008).

The structures appear in SMILES notation. “And” between values parts separate entries of the source, which are not always exact repeats. Identical values can stand only once. “Also recorded” adds a separate entry of the source.

Series [1] can be described thus: Side effects of corticosteroids (very preliminary data, not shown).
For series [2], the system named is rabbit eye (anterior chamber paracentesis). In words: Rabbit paracentesis model, overall anti-inflammatory activity. The series is classed as in vivo. The conditions noted are these: 0.1%, 0.5% and 1% topical formulations; preliminary conclusions; listed as BOL-303242-X. An excerpt:
Inflammatory processes are multidimensional in origin, and are characterized by complex cellular and molecular events involving numerous components all of which have not been identified. Prostaglandins are among these mediators and play an important role in certain forms of ocular inflammation. Paracentesis of the anterior chamber in the rabbit eye induces inflammatory reaction due to the disruption of the blood-aqueous barrier (“BAB”), which is mediated, at least in part, by prostaglandin E2 [References 1-3 below]. Intraocular or topical administration of PGE2 disrupts the BAB. [Reference 4, below] The treatment schedule adopted in this study was similar to the clinical NSAIDs (Ocufen) treatment schedule used by surgeons for patients before cataract surgery.
Each rabbit was placed in a restraint device and tagged with the alphanumeric code. The formulations were instilled (50 μl) into the conjunctival sac of both eyes 180, 120, 90 and 30 min before the first paracentesis; then 15, 30, 90 min after the first paracentesis. To perform the first paracentesis the animals were anaesthetized by intraveneous injection of 5 mg/kg Zoletil® (Virbac; 2.5 mg/kg tiletamine HCl and 2.5 mg/kg zolazepam HCl) and one drop of local anesthetic (Novesina®, Novartis) was administered to the eye. […]

For series [3], the system named is leukocytes (PMN) in aqueous humor. In words: Leukocytes (PMN) measurement in aqueous humor, rabbit paracentesis model. It is filed as in vivo. The conditions noted are these: aqueous humor at the second paracentesis; for PMN (number/μl): raw data per sample; for PMN numbers, Mean (number/μl): group mean. As for the experimental part:
Each rabbit was placed in a restraint device and tagged with the alphanumeric code. The formulations were instilled (50 μl) into the conjunctival sac of both eyes 180, 120, 90 and 30 min before the first paracentesis; then 15, 30, 90 min after the first paracentesis. To perform the first paracentesis the animals were anaesthetized by intraveneous injection of 5 mg/kg Zoletil® (Virbac; 2.5 mg/kg tiletamine HCl and 2.5 mg/kg zolazepam HCl) and one drop of local anesthetic (Novesina®, Novartis) was administered to the eye. Anterior chamber paracentesis was performed with a 26 G needle attached to a tuberculin syringe; the needle was introduced into the anterior chamber through the cornea, taking care not to damage the tissues. Two hours after the first paracentesis, the animals were sacrificed with 0.4 ml Tanax® (Intervet International B.V.) and the second paracentesis was performed. About 100 μl of aqueous humor were removed at the second paracentesis. Aqueous humor was immediately split in four aliquots and stored at −80° C. until analysis. Then both eyes were enucleated and the iris-ciliary body was carefully excised, placed in polypropylene tubes, and stored at −80° C. until analysis.
For the determination of the number of leukocytes we used a haemocytometer (Improved Neubauer Chamber; Brigth-line, Hausser Scientific) and a Polyvar 2 microscope (Reichert-Jung).

For the compound `Cc1ccc2c(NCC(O)(CC(C)(C)c3cc(F)cc4c3OCC4)C(F)(F)F)cccc2n1` (stereo not drawn) [BOL], in series [1], the “Side effects of corticosteroids” value was “does not have some of the side effects of corticosteroids”. Besides, in series [2], the “Anti-inflammatory activity in the rabbit paracentesis model (conclusion)” value is recorded as “active; also recorded: as effective an anti-inflammatory drug as some of the commonly accepted prior-art steroids or NSAID”. Also, the “PMN (number/μl)” value in series [3] (1% topical formulation) was 30 number/μl and 20 number/μl and 40 number/μl.

For `C[C@@H]1C[C@H]2[C@@H]3CCC4=CC(=O)C=C[C@]4(C)[C@@]3(F)[C@@H](O)C[C@]2(C)[C@@]1(O)C(=O)CO` [Dex, dexamethasone], the “PMN numbers, Mean (number/μl)” value in series [3] (0.1% topical formulation) is recorded as 30.000 number/μl.

Regarding `CC(C(=O)O)c1ccc(-c2ccccc2)c(F)c1` (stereo not drawn) [F, flurbiprofen], in series [3] (0.03% topical formulation), the “PMN numbers, Mean (number/μl)” value was 30.000 number/μl.

`CCOC(=O)O[C@]1(C(=O)OCCl)CC[C@H]2[C@@H]3CCC4=CC(=O)C=C[C@]4(C)[C@H]3[C@@H](O)C[C@@]21C` [LE, loteprednol etabonate]: in series [3] (0.5% topical formulation), the “PMN (number/μl)” value is 40 number/μl and 20 number/μl and 30 number/μl.
